Measured values published in ChEMBL document CHEMBL1132779, “The design and synthesis of novel NK1/NK2 dual antagonists” (Bioorg Med Chem Lett, 2000).

Tests used:
Substance-K receptor = target: T1, Substance-K receptor (Homo sapiens, UniProt P21452); experiment: Binding affinity towards Tachykinin receptor 2 in CHO cells using [3H]-neurokinin A as radioligand; format: cell-based
T1 sequence (P21452 whole entry): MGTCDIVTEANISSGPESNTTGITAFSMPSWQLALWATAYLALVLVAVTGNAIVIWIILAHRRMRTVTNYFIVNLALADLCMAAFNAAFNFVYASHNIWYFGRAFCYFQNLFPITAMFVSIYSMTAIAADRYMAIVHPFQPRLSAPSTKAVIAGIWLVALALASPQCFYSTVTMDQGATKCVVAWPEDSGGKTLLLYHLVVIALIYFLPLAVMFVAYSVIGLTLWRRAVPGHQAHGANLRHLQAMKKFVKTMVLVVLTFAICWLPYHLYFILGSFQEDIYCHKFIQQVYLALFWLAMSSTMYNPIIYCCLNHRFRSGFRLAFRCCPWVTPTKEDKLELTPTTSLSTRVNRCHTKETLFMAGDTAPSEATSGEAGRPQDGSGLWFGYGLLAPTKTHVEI

Substance-P receptor = Substance-P receptor (Homo sapiens, UniProt P25103); experiment: Binding affinity towards Tachykinin receptor 1 in CHO cells using [3H]-Sar SP as radioligand; format: cell-based
[1] = target: T2, Substance-K receptor (Homo sapiens) (UniProt P21452); settings: 0.1 uM
T2 sequence (whole entry): T1 sequence (P21452 whole entry)
Description: Inhibitory activity against Tachykinin receptor 2 at a concentration of 0.1 uM

[2] = target: T2, Substance-K receptor (Homo sapiens); settings: 1 uM
Description: Inhibitory activity against Tachykinin receptor 2 at a concentration of 1 uM

Chain of Substance-P receptor (P25103 whole entry): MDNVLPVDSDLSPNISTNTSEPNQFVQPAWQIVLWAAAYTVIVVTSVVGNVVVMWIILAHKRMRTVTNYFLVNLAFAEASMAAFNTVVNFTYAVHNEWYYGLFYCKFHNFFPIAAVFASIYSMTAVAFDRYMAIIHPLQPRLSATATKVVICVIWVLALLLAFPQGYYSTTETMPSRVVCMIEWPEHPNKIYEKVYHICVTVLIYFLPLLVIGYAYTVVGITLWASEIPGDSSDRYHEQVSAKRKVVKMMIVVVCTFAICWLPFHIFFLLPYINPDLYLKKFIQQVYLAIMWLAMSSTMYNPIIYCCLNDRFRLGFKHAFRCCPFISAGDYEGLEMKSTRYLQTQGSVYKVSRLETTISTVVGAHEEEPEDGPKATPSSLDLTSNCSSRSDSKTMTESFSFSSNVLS

For `CC(=O)NC1(c2ccccc2)CCN(CC[C@H](CN(C)C(=O)c2ccccc2)c2ccc(Cl)c(Cl)c2)CC1` [SAREDUTANT], the Ki (Substance-K receptor) was 0.0005 µM.

Molecule `O/N=C(\COCc1cc(C(F)(F)F)cc(C(F)(F)F)c1)C(CCN1CCC(O)(c2ccccc2)CC1)c1ccc(Cl)c(Cl)c1` (configuration not stated) has a Ki (Substance-P receptor) of 0.024 µM and a Ki (Substance-K receptor) of 0.122 µM.

In the case of `CO/N=C(\COCc1cc(C(F)(F)F)cc(C(F)(F)F)c1)[C@H](CCN1CCC(O)(c2ccccc2)CC1)c1ccc(Cl)c(Cl)c1`, the Ki (Substance-P receptor) is reported as 0.02 µM and the Ki (Substance-K receptor) is reported as 0.007 µM.

Work on `NC(=O)CN[C@H](COCc1cc(C(F)(F)F)cc(C(F)(F)F)c1)C(c1ccccc1)c1ccccc1` yielded a Ki (Substance-P receptor) of 0.0009 µM.

`NC(=O)CNC(COCc1cc(C(F)(F)F)cc(C(F)(F)F)c1)C(CCN1CCC(O)(c2ccccc2)CC1)c1ccc(Cl)c(Cl)c1` (configuration not stated) gave a Ki (Substance-P receptor) of 0.004 µM and a Ki (Substance-K receptor) of 0.034 µM.

`NC(=O)CN[C@H](COCc1cc(C(F)(F)F)cc(C(F)(F)F)c1)[C@@H](CCN1CCC(O)(c2ccccc2)CC1)c1ccc(Cl)c(Cl)c1` was tested, and the inhibition [1] was 10% and the Ki (Substance-P receptor) was 0.005 µM.

`CO/N=C(\COCc1cc(C(F)(F)F)cc(C(F)(F)F)c1)[C@@H](CCN1CCC(O)(c2ccccc2)CC1)c1ccc(Cl)c(Cl)c1` gave a Ki (Substance-P receptor) of 0.033 µM and a Ki (Substance-K receptor) of 0.397 µM.

`CO/N=C(\COCc1cc(C(F)(F)F)cc(C(F)(F)F)c1)C(CCN1CCC(O)(c2ccccc2)CC1)c1ccc(Cl)c(Cl)c1` (configuration not stated) was tested, and the Ki (Substance-P receptor) was 0.025 µM and the Ki (Substance-K receptor) was 0.021 µM.

Work on `NC(=O)CN[C@@H](COCc1cc(C(F)(F)F)cc(C(F)(F)F)c1)[C@H](CCN1CCC(O)(c2ccccc2)CC1)c1ccc(Cl)c(Cl)c1` yielded a Ki (Substance-P receptor) of 0.009 µM and a Ki (Substance-K receptor) of 0.034 µM.

`NC(=O)CN[C@@H](COCc1cc(C(F)(F)F)cc(C(F)(F)F)c1)[C@@H](CCN1CCC(O)(c2ccccc2)CC1)c1ccc(Cl)c(Cl)c1` showed an inhibition [1] of 27% and a Ki (Substance-P receptor) of 0.0007 µM.

In the case of `CO/N=C(/COCc1cc(C(F)(F)F)cc(C(F)(F)F)c1)C(CCN1CCC(O)(c2ccccc2)CC1)c1ccc(Cl)c(Cl)c1` (configuration not stated), the Ki (Substance-P receptor) is reported as 0.025 µM and the inhibition [2] is reported as 35%.

`O/N=C(/COCc1cc(C(F)(F)F)cc(C(F)(F)F)c1)C(CCN1CCC(O)(c2ccccc2)CC1)c1ccc(Cl)c(Cl)c1` (configuration not stated) gave a Ki (Substance-P receptor) of 0.034 µM and a Ki (Substance-K receptor) of 0.358 µM.
